In ChEMBL document CHEMBL1138374, “Arylsulfonamides as a new class of cannabinoid CB1 receptor ligands: identification of a lead and initial SAR studies” (Bioorg Med Chem Lett, 2007):

Legend:
Cannabinoid receptor 1 [1] = target: T1, Cannabinoid receptor 1 (Homo sapiens, UniProt P21554); assay: Binding affinity to human recombinant CB1 receptor
Cannabinoid receptor 1 [2] = target: T1, Cannabinoid receptor 1; assay: Agonist activity at human recombinant CB1 receptor expressed in CHO cells by [35S]GTP-gamma-S binding assay; type: functional, cell-based
Cannabinoid receptor 2 = Cannabinoid receptor 2 (Homo sapiens, UniProt P34972); assay: Binding affinity to CB2 receptor
Mus musculus [3] = assay: Reduction of nociception in NMRI mouse during early phase (0 to 5 mins) at 10 mg/kg, ip by formalin test; type: functional; parameters: scale not given: the % may be the effect or the level left; settings: route intraperitoneal
Mus musculus [4] = assay: Reduction of nociception in NMRI mouse during early phase (0 to 5 mins) at 30 mg/kg, ip by formalin test; type: functional; parameters: scale not given: the % may be the effect or the level left; settings: route intraperitoneal
Mus musculus [5] = assay: Reduction of nociception in NMRI mouse during early phase (0 to 5 mins) at 90 mg/kg, ip by formalin test; type: functional; parameters: scale not given: the % may be the effect or the level left; settings: route intraperitoneal
Mus musculus [6] = assay: Reduction of nociception in NMRI mouse during early phase (0 to 5 mins) at 80 mg/kg, ip by formalin test; type: functional; parameters: scale not given: the % may be the effect or the level left; settings: route intraperitoneal
Mus musculus [7] = assay: Reduction of nociception in NMRI mouse during late phase (10 to 30 mins) at 10 mg/kg, ip by formalin test; type: functional; parameters: scale not given: the % may be the effect or the level left; settings: route intraperitoneal
Mus musculus [8] = assay: Reduction of nociception in NMRI mouse during late phase (10 to 30 mins) at 30 mg/kg, ip by formalin test; type: functional; parameters: scale not given: the % may be the effect or the level left; settings: route intraperitoneal
Mus musculus [9] = assay: Reduction of nociception in NMRI mouse during late phase (10 to 30 mins) at 90 mg/kg, ip by formalin test; type: functional; parameters: scale not given: the % may be the effect or the level left; settings: route intraperitoneal
Mus musculus [10] = assay: Reduction of nociception in NMRI mouse during late phase (10 to 30 mins) at 180 mg/kg, ip by formalin test; type: functional; parameters: scale not given: the % may be the effect or the level left; settings: route intraperitoneal
Mus musculus [11] = assay: Induction of hypokinesia with reduced postural tone NMRI mouse at 180 mg/kg, ip; type: organism-based; parameters: dose 180 mg/kg, route intraperitoneal; settings: in vivo
[12] = target: Cannabinoid receptor 1 (Mus musculus) (UniProt P47746); settings: Vas deferens
Description: Agonist activity at CB1 receptor assessed as inhibition of electrically-induced twitch contraction amplitude in mouse vas deferens

[13] = target: Cannabinoid receptor 1 (Mus musculus) (UniProt P47746); settings: Vas deferens; 0.1 uM
Description: Agonist activity at CB1 receptor assessed as inhibition of electrically-induced twitch contraction amplitude in mouse vas deferens at 0.1 uM relative to WIN-55212-2

Mus musculus [14] = assay: Reduction of nociception in ip dosed NMRI mouse during late phase (10 to 30 mins); type: functional
Mus musculus [15] = assay: Induction of hypokinesia NMRI mouse at 0.3 mg/kg, ip; type: organism-based; parameters: dose 0.3 mg/kg, route intraperitoneal; settings: in vivo
Mus musculus [16] = assay: Induction of hypotonia NMRI mouse at 0.3 mg/kg, ip; type: organism-based; parameters: dose 0.3 mg/kg, route intraperitoneal; settings: in vivo

T1 sequence (P21554 whole entry): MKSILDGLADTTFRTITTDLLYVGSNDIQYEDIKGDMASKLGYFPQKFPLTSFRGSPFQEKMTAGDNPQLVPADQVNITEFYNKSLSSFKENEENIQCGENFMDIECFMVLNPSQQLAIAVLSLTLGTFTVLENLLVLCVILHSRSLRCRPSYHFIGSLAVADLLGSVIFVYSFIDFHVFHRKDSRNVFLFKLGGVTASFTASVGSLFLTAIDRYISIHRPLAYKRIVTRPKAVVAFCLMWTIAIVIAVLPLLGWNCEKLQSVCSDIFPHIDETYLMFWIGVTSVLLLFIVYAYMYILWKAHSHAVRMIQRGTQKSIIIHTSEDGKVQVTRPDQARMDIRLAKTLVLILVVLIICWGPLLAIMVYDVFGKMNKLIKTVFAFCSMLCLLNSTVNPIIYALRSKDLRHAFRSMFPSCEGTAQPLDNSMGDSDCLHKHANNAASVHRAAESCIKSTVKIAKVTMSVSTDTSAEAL
Chain of Cannabinoid receptor 1 (Mus musculus) (P47746 whole entry): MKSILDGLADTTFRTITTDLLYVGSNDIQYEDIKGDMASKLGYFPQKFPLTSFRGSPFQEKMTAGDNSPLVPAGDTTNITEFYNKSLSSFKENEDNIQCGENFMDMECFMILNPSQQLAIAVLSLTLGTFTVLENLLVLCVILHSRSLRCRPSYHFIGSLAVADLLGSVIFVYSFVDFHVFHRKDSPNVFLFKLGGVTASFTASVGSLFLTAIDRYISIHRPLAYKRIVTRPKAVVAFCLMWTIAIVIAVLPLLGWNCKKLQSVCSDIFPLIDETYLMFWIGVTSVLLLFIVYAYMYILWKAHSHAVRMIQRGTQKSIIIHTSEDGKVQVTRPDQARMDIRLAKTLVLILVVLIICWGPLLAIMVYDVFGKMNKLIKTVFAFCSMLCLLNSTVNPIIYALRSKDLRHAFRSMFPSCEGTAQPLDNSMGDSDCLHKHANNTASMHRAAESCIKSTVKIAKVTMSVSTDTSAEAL
Chain of Cannabinoid receptor 2 (P34972 whole entry): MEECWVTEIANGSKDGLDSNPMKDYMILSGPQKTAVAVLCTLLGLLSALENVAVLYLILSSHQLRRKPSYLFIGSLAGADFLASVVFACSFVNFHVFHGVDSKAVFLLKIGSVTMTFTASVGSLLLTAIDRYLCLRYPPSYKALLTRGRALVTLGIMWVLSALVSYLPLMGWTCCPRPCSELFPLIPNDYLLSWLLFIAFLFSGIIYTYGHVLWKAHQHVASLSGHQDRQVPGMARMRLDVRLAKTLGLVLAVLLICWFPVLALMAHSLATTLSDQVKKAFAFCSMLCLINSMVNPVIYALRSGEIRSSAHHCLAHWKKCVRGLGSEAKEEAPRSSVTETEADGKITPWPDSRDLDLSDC
Description for Homo sapiens: Selectivity for CB2 receptor over human recombinant CB1 receptor

Compound	IC50 (Cannabinoid receptor 1 [1])	EC50 (Cannabinoid receptor 1 [2])	also measured
Cc1ccc(NC(=O)c2ccc(C)c(S(=O)(=O)N3CCCCC3)c2)cc1	7940 nM	> 10000 nM	
Cc1ccc(C(=O)O)cc1S(=O)(=O)N1CCCCC1	> 10000 nM	> 10000 nM	
Cc1ccc(C(=O)Nc2ccccc2)cc1S(=O)(=O)N1CCCC1	6310 nM	> 10000 nM	
O=C(Nc1ccc(Cl)c(S(=O)(=O)N2CCOCC2)c1)c1ccccc1Cl	1580 nM	> 10000 nM	
Cc1ccc(C(=O)Oc2cccc3cccnc23)cc1S(=O)(=O)N1CCCCC1	0.794 nM	10 nM	Ki (Cannabinoid receptor 2): 25.1 nM; Activity (Mus musculus [3]): -1%; Activity (Mus musculus [4]): -1%; Activity (Mus musculus [5]): -53%; Activity (Mus musculus [6]): -54%; Activity (Mus musculus [7]): -15%; Activity (Mus musculus [8]): -50%; Activity (Mus musculus [9]): -71%; Activity (Mus musculus [10]): -59%; Activity (Mus musculus [11]): Toxic; logSI (Homo sapiens): 1; pD2 [12]: 6.42; inhibition [13]: 87.3%
O=C(Nc1ccccc1O)c1ccc(Cl)c(S(=O)(=O)N2CCCCCC2)c1	200 nM	1260 nM	
O=C(Oc1cccc2cccnc12)c1cccc(S(=O)(=O)N2CCCCCC2)c1	50.1 nM	200 nM	
COc1ccccc1NC(=O)c1cccc(S(=O)(=O)N2CCCCC2)c1	> 10000 nM		
Cc1ccc(C(=O)Oc2ccccc2Br)cc1S(=O)(=O)N1CCOCC1	31.6 nM	398 nM	
Cc1c(C(=O)c2cccc3ccccc23)c2cccc3c2n1[C@H](CN1CCOCC1)CO3 [WIN-552122]			ED50 (Mus musculus [14]): 0.21 mg/kg; Activity (Mus musculus [15]): Toxic; Activity (Mus musculus [16]): Toxic
Cc1ccc(NC(=O)c2ccccc2Oc2ccccc2)cc1S(=O)(=O)N1CCOCC1	2000 nM	> 10000 nM	
Nc1cccc(NC(=O)c2cccc(S(=O)(=O)N3CCCCC3)c2)c1	5010 nM	> 10000 nM	
Cc1ccc(C(=O)Oc2cccc3cccnc23)cc1S(=O)(=O)N1CCOCC1	1.26 nM	12.6 nM	
Cc1ccc(NC(=O)c2cccc(C#N)c2)cc1S(=O)(=O)N1CCOCC1	1580 nM	5010 nM	
Cc1ccc(C(=O)Nc2cccc(F)c2)cc1S(=O)(=O)N1CCCCC1	1260 nM	> 10000 nM	
Cc1ccc(NC(=O)c2ccc(C)c(S(=O)(=O)N3CCCCC3)c2)nc1	3160 nM	> 10000 nM	
O=C(Oc1cccc2cccnc12)c1cccc(S(=O)(=O)N2CCCCC2)c1	15.8 nM	50.1 nM	
O=C(Nc1ccc(Cl)c(S(=O)(=O)N2CCOCC2)c1)c1ccccc1	3980 nM	631 nM	
O=C(Oc1cccc2cccnc12)c1cccc(S(=O)(=O)N2CCCC2)c1	158 nM	631 nM	
COc1ccc(C(=O)Oc2cccc3cccnc23)cc1S(=O)(=O)N1CCOCC1	39.8 nM	398 nM	
Cc1ccc(C(=O)Nc2ccccc2)cc1S(=O)(=O)N1CCCCC1	3160 nM	> 10000 nM	
COc1ccccc1OC(=O)c1ccc(C)c(S(=O)(=O)N2CCOCC2)c1	3160 nM	63.1 nM	
O=C(Nc1ccc(Cl)c(S(=O)(=O)N2CCOCC2)c1)c1cccc2ccccc12	398 nM	794 nM	
Cc1ccc(C(=O)Nc2cccc3cnccc23)cc1S(=O)(=O)N1CCCCC1	1260 nM	6310 nM	
